# Source: ChEMBL document CHEMBL6103615, “Thymidylate Kinase-Targeted Antimicrobial Peptides via Phage Display: A Novel Strategy against Gram-Negative Bacteria” (J Med Chem, 2025)
# The source made the active and inactive calls. The rule behind the calls is not given here.
# Legend:
# [1] = system: Escherichia coli; experiment: Binding affinity to Escherichia coli K88 TMK at 128 uM by BLI assay
# [2] = system: Escherichia coli; experiment: Binding affinity to Escherichia coli K88 TraV at 128 uM by BLI assay
# [3] = system: Lacticaseibacillus rhamnosus; experiment: Antibacterial activity against Lactobacillus rhamnosus 7469 incubated for 12 to 18 hrs by microbroth dilution method; format: functional; details: time 12-18 hrs
# [4] = system: Enterococcus faecalis; experiment: Antibacterial activity against Enterococcus faecalis 29212 incubated for 12 to 18 hrs by microbroth dilution method; format: functional; details: time 12-18 hrs
# [5] = Antibacterial activity against Salmonella choleraesuis 21493 incubated for 12 to 18 hrs by microbroth dilution method; format: functional, Salmonella enterica subsp. enterica serovar Choleraesuis; details: Salmonella enterica, time 12-18 hrs
# [6] = system: Lactococcus lactis; experiment: Antibacterial activity against Lactococcus lactis NZ9000 incubated for 12 to 18 hrs by microbroth dilution method; format: functional; details: time 12-18 hrs
# [7] = Cytotoxicity against mouse RAW264.7 cells assessed as cell viability at 128 uM incubated for 4 hrs by MTT assay relative to control; format: toxicity, cell-based; details: read-out: Activity
# [8] = system: Lactiplantibacillus plantarum; experiment: Antibacterial activity against Lactobacillus plantarum 8014 incubated for 12 to 18 hrs by microbroth dilution method; format: functional; details: time 12-18 hrs
# [9] = Hemolytic activity against human red blood cells at 2 to 128 uM relative to control; format: toxicity, cell-based, Erythrocyte; details: dose 2-128 µM, read-out: Activity
# [10] = Cytotoxicity against porcine IPEC-J2 cells assessed as cell viability at 128 uM incubated for 4 hrs by MTT assay relative to control; format: toxicity, cell-based, Sus scrofa; details: pig, read-out: Activity
# [11] = Relative hydrophobic moment of compound; format: physicochemical
# [12] = Hydrophobicity of compound; format: physicochemical
# [13] = system: Staphylococcus epidermidis; experiment: Antibacterial activity against Staphylococcus epidermidis 12228 incubated for 12 to 18 hrs by microbroth dilution method; format: functional; details: time 12-18 hrs
# [14] = system: Escherichia coli; experiment: Antibacterial activity against Escherichia coli K88 incubated for 12 to 18 hrs by microbroth dilution method; format: functional; details: time 12-18 hrs
# [15] = system: Escherichia coli; experiment: Antibacterial activity against Escherichia coli 078 incubated for 12 to 18 hrs by microbroth dilution method; format: functional; details: time 12-18 hrs
# [16] = system: Staphylococcus aureus; experiment: Antibacterial activity against Staphylococcus aureus 29213 incubated for 12 to 18 hrs by microbroth dilution method; format: functional; details: time 12-18 hrs
# [17] = system: Pseudomonas aeruginosa; experiment: Antibacterial activity against Pseudomonas aeruginosa PAO1 incubated for 12 to 18 hrs by microbroth dilution method; format: functional; details: time 12-18 hrs
# [18] = system: Pseudomonas aeruginosa; experiment: Antibacterial activity against Pseudomonas aeruginosa 27853 incubated for 12 to 18 hrs by microbroth dilution method; format: functional; details: time 12-18 hrs
# [19] = system: Staphylococcus aureus; experiment: Antibacterial activity against methicillin-resistant Staphylococcus aureus 43300 incubated for 12 to 18 hrs by microbroth dilution method; format: functional; details: time 12-18 hrs
# [20] = system: Staphylococcus aureus; experiment: Antibacterial activity against Staphylococcus aureus 25923 incubated for 12 to 18 hrs by microbroth dilution method; format: functional; details: time 12-18 hrs
# [21] = system: Escherichia coli; experiment: Antibacterial activity against Escherichia coli 1515 incubated for 12 to 18 hrs by microbroth dilution method; format: functional; details: time 12-18 hrs
# [22] = system: Escherichia coli; experiment: Antibacterial activity against Escherichia coli K99 incubated for 12 to 18 hrs by microbroth dilution method; format: functional; details: time 12-18 hrs
# [23] = system: Salmonella typhimurium; experiment: Antibacterial activity against Salmonella typhimurium 7731 incubated for 12 to 18 hrs by microbroth dilution method; format: functional, Salmonella enterica subsp. enterica serovar Typhimurium; details: Salmonella enterica, time 12-18 hrs
# [24] = system: Bacteria; experiment: Antibacterial activity against bacterial cells at 1 to 64 uM incubated for 4 hrs in presence of 50 percent serum; format: functional, organism-based; details: dose 1-64 µM
# [25] = Effect on secondary structure of compound in PBS assessed as formation of alpha-helical conformation at 100 uM by CD analysis; format: physicochemical; details: buffer
# [26] = system: Bacteria; experiment: Antibacterial activity against bacterial cells at 1 to 128 uM in presence of CaCl; format: functional, organism-based; details: dose 1-128 µM
# [27] = system: Escherichia coli; experiment: Induction of ROS generation in Escherichia coli K88 assessed as increase in fluorescence intensity incubated for 1 hr by DCFH-DA dye based analysis; format: functional, organism-based
# [28] = system: Escherichia coli; experiment: Induction of morphological changes in Escherichia coli K88 assessed as membrane contraction at 2 uM incubated for 1 hr by SEM analysis; format: functional, organism-based
# [29] = system: Bacteria; experiment: Antibacterial activity against bacterial cells at pH 2 to 12; format: functional
# [30] = system: Bacteria; experiment: Antibacterial activity against bacterial cells at 100 degreeC at 1 to 64 uM incubated for 60 mins; format: functional, organism-based; details: dose 1-64 µM
# [31] = system: Bacteria; experiment: Antibacterial activity against bacterial cells at pH 2; format: functional
# [32] = system: Escherichia coli; experiment: Induction of resistance development in Escherichia coli K88 at sub-MIC measured after 20 passages; format: functional, organism-based
# [33] = system: Escherichia coli; experiment: Inhibition of DNA migration in Escherichia coli K88 at 64 uM incubated for 40 mins by agarose gel electrophoresis.; format: functional, organism-based
# [34] = system: Escherichia coli; experiment: Induction of morphological changes in Escherichia coli K88 assessed as cytoplasmic leakage at 2 uM incubated for 1 hr by TEM analysis; format: functional, organism-based
# [35] = Binding affinity to 6xHis-tagged recombinant Escherichia coli TMK assessed as dissociation constant by BLI assay
# [36] = system: Bacteria; experiment: Antibacterial activity against bacterial cells at pH 12; format: functional
# [37] = system: Bacteria; experiment: Antibacterial activity against bacterial cells at pH 4 to 10; format: functional
# [38] = system: Escherichia coli; experiment: Disruption of membrane integrity in Escherichia coli K88 at 2 uM by PI staining based flow cytometry (reference value: 0.1 %); format: functional
# [39] = system: Escherichia coli; experiment: Induction of morphological changes in Escherichia coli K88 assessed as membrane permeability at edges at 2 uM incubated for 1 hr by TEM analysis; format: functional, organism-based
# [40] = system: Escherichia coli; experiment: Induction of morphological changes in Escherichia coli K88 assessed as membrane folding at 2 uM incubated for 1 hr by SEM analysis; format: functional, organism-based
# [41] = system: Bacteria; experiment: Antibacterial activity against bacterial cells at 1 to 128 uM in presence of NaCl; format: functional, organism-based; details: dose 1-128 µM
Compound,MIC [3] [µM],MIC [4] [µM],MIC [5] [µM],MIC [6] [µM],"viability at 4 h, 128 µM [7] [%]",MIC [8] [µM],"viability at 4 h, 128 µM [10] [%]",Activity [11],Activity [12],MIC [13] [µM],MIC [14] [µM],MIC [15] [µM],MIC [16] [µM],MIC [17] [µM],MIC [18] [µM],MIC [19] [µM],MIC [20] [µM],MIC [21] [µM],MIC [22] [µM],MIC [23] [µM],further results
CC[C@@H](C)[C@H](NC(=O)CNC(=O)[C@@H]1CCCN1C(=O)[C@H](CCCCN)NC(=O)[C@H](Cc1c[nH]c2ccccc12)NC(=O)[C@@H](NC(=O)[C@H](CCCCN)NC(=O)[C@H](CCCCN)NC(=O)[C@H](Cc1c[nH]c2ccccc12)NC(=O)[C@H](Cc1ccc(O)cc1)NC(=O)[C@H](CCCCN)NC(=O)[C@@H](NC(=O)[C@H](CC(C)C)NC(=O)[C@H](CC(N)=O)NC(=O)CNC(=O)[C@H](CO)NC(=O)CCCC[C@@H]1SC[C@@H]2NC(=O)N[C@@H]21)[C@@H](C)O)[C@@H](C)CC)C(=O)N[C@@H](CCCCN)C(=O)N[C@@H](CCCCN)C(=O)N[C@@H](Cc1c[nH]c2ccccc12)C(=O)N[C@H](C(=O)N[C@@H](CCCCN)C(=O)O)[C@H](C)CC,–,–,–,–,–,–,–,–,–,–,–,–,–,–,–,–,–,–,–,–,Activity [1]: Active; Activity [2]: Active
CC[C@H](C)[C@H](NC(=O)CN)C(=O)NCC(=O)N[C@@H](C)C(=O)N[C@H](C(=O)N[C@@H](CC(C)C)C(=O)N[C@@H](CCCCN)C(=O)N[C@H](C(=O)N[C@@H](CC(C)C)C(=O)N[C@H](C(=O)N[C@H](C(=O)NCC(=O)N[C@@H](CC(C)C)C(=O)N1CCC[C@H]1C(=O)N[C@@H](C)C(=O)N[C@@H](CC(C)C)C(=O)N[C@H](C(=O)N[C@@H](CO)C(=O)N[C@@H](Cc1c[nH]c2ccccc12)C(=O)N[C@H](C(=O)N[C@@H](CCCCN)C(=O)N[C@@H](CCCNC(=N)N)C(=O)N[C@@H](CCCCN)C(=O)N[C@@H](CCCNC(=N)N)C(=O)N[C@@H](CCC(N)=O)C(=O)N[C@@H](CCC(N)=O)C(N)=O)[C@@H](C)CC)[C@@H](C)CC)[C@@H](C)O)[C@@H](C)O)C(C)C)C(C)C [MELITTIN],2,2,4,2,> 80,2,> 80,–,–,–,–,–,–,–,–,–,–,–,–,–,hemolysis at up to 128 µM [9]: < 5%
H-CFASAPRWKKIWKPGIKKWIK-OH [listing 1 of 2 here],–,–,–,–,> 80,–,> 80,0.562,0.502,–,–,–,–,–,–,–,–,–,–,–,hemolysis at up to 128 µM [9]: < 5%
H-CFASAPRWKKIWKPGIKKWIK-OH [listing 2 of 2 here],128,128,16,128,–,128,–,–,–,128,8,16,128,8,32,128,128,8,16,16,–
H-EMPGYNSWKKIWKPGIKKWIK-OH,128,128,64,128,> 80,128,> 80,0.475,0.408,128,32,128,128,32,64,128,128,64,32,64,hemolysis at up to 128 µM [9]: < 5%
H-FASSHPSWKKIWKPGIKKWIK-OH,128,128,16,128,> 80,128,> 80,0.55,0.465,128,32,32,128,16,32,128,128,32,32,16,–
H-HSDANAWWKKIWKPGIKKWIK-OH,128,128,16,128,> 80,128,> 80,0.455,0.406,128,32,8,128,16,32,128,128,16,16,32,–
H-RLTTMVHWKKIWKPGIKKWIK-OH,128,128,16,128,> 80,128,> 80,0.439,0.51,128,4,8,128,4,8,128,128,8,8,8,hemolysis at up to 128 µM [9]: < 5%
H-WKKIWKPGIKKWIK-OH,128,128,16,128,> 80,128,> 80,0.727,0.495,128,16,32,128,16,32,128,128,32,16,32,Activity [24]: Active; Activity [25]: Active; Activity [26]: inactive; Activity [27]: Dose-dependent-effect; Activity [28]: inactive; MIC [29]: 16 µM; Activity [30]: Active; MIC [31]: 32 µM; Activity [32]: inactive; inhibition [33]: Active; Activity [34]: inactive; Kd [35]: < 1 pM; MIC [36]: 32 µM; MIC [37]: 16 µM; hemolysis at up to 128 µM [9]: < 5%; Activity [38]: 16.3%; Activity [39]: inactive; Activity [40]: inactive; Activity [41]: inactive
H-WTSNDTAWKKIWKPGIKKWIK-OH,128,128,64,128,> 80,128,> 80,0.532,0.41,128,64,128,128,64,128,128,128,64,64,64,hemolysis at up to 128 µM [9]: < 5%
H-YTVSATYWKKIWKPGIKKWIK-OH,128,128,16,128,> 80,128,> 80,0.452,0.517,128,8,8,128,8,32,128,128,8,8,8,hemolysis at up to 128 µM [9]: < 5%
